Tests used:
[1] = test system: C3A derivative clone of the HepG2 Hepatocellular Carcinoma cell line; experiment: Hepatic albumin production in cirrhosis media, ELISA normalized to nuclei (Example 9); format: cell-based, human; settings: for Albumin/Nuclei (mean): 48 hours
Description: Media composed of amino acids consistent with profiles of cirrhotic individuals was tested for effect on production of albumin. Effects of […], components and comparator compositions on albumin production were determined. Methods: The ability of […] to increase hepatocyte albumin production was assessed using the C3A derivative clone of the HepG2 Hepatocellular Carcinoma cell line (ATCC, CRL-10741). 2.0e4 cells per well were seeded on day 0 in a 96-well microplate (Corning; 3903) in Dulbecco's Modified Eagle Medium (DMEM, Corning) supplemented with 10% fetal bovine serum (Corning) and 0.2% Primocin (InVivoGen, San Diego, Calif.) and incubated for 24 hours at 37° C., 5% CO2. […] Cells were cultured for 48 hours at 37° C., 5% CO2, media was collected, cells were washed 1× in PBS, fixed in 4% paraformaldehyde, washed 2× in PBS, nuclei were stained with Hoechst 33342 according to manufacturer's instructions (Life Technologies, H3570) and then washed 2× in PBS. Media albumin levels were assessed by R&D Systems's DuoSet ELISA Development System for Human Serum Albumin (R&D Systems, DY1455) and nuclei were counted using Molecular Devices Image Express High Content Screening platform and pre-installed nuclei counting analysis pipeline. Albumin levels were normalized to total nuclei in order to derive a per cell albumin production ratio.

primary human myotubes = experiment: TNF induced myotube atrophy, MYOSCREEN platform (Example 10); format: cell-based; set-up: Myotube Area mean: unit not given here; settings: for Fusion Index mean / Myotube Area mean: TNFalpha 10 ng/mL, N=3
Description: Methods: Experiment was performed using the […] platform (CYTOO, France). Briefly, […] is a proprietary technology based on micropatterning and defined microenvironments that establish highly mature primary human myotubes with substantial striation and low morphological variability. Primary cells derived from skeletal muscle of healthy human donors are differentiated to form myotubes (multinucleated syncytia) that are highly reminiscent of human muscle tissue. […] is a fully automated platform that interrogates multiple phenotypes relevant for muscle physiology including myotube area, fusion index, and total nuclei. On Day 0 expanded primary myoblasts from a healthy human donor were seeded at 10,000 cells per well for 24 hour at 37 deg C. […] Importantly, treatment groups were prepared in PBS and final concentration in all wells, including controls, was 10% PBS. On Day 2 cells were switched to Cirrhosis Media based on DMEM comprising 0.1% horse serum and 0.5× amino acids at ratios of plasma of cirrhosis (Kakazu et al., 2013) containing atrophy inducer TNFalpha (10 ng/mL) and again treated according to Day 1 and Table 16. On Day 6 cells were fixed with 5% Formalin for 30 minutes at room temperature. Fixed cells were processed for immunostaining with primary antibody against Troponin T to stain myotubes and Hoeschst dye for nuclei. Image acquisition was done at 10× magnification using Operetta High Content Imaging System and analysis was performed using a proprietary and dedicated algorithm on the Acapella High Content Imaging System (Perkin Elmer, CYTOO).

[2] = dose 5X of concentration in cirrhosis media
[3] = dose 10x of concentration in cirrhosis media
[4] = dose 20X of concentration in cirrhosis media
[5] = dose 30X of concentration in cirrhosis media

With `CC(C)C[C@H](N)C(=O)O` [L, L-leucine] the “Albumin/Nuclei (mean)” value ([1]; Dose 5X of basal media concentrations) was −0.087, the “Albumin/Nuclei (mean)” value ([1]; Dose 10X of basal media concentrations) was −0.116 and the “Albumin/Nuclei (mean)” value ([1]; Dose 20X of basal media concentrations) was −0.219. For the same compound, the “Albumin/Nuclei (mean)” value ([1]; Dose 40X of basal media concentrations) was 0.148, the “Effect on Albumin” value ([1]; over the dose curve 5X-40X) was “No Effect” and the “Effect on Atrophy” value (primary human myotubes; TNF induced myotube atrophy, overall call across doses) was “no effect”. The “Fusion Index mean” value (primary human myotubes; [2]) was 0.087, the “Myotube Area mean” value (primary human myotubes; [2]) was 4499.140 and the “Fusion Index mean” value (primary human myotubes; [3]) was 0.094. The “Myotube Area mean” value (primary human myotubes; [3]) was 4480.850, the “Fusion Index mean” value (primary human myotubes; [4]) was 0.091 and the “Myotube Area mean” value (primary human myotubes; [4]) was 4679.729. The “Fusion Index mean” value (primary human myotubes; [5]) was 0.092 and the “Myotube Area mean” value (primary human myotubes; [5]) was 4579.231.
